Assay results published in patent US20100317729A1 (GW Pharma Limited, priority 2007, published 2010).

Key:
[1] = clinical study, at least some of the patients; cited from earlier work
CB1 receptor [2] = target: T1, CB1 receptor (Mus musculus, UniProt P47746); assay: [35S]GTPγS binding assay, mouse brain membranes; assay type: biochemical
T1 construct: membranes prepared from healthy brain tissue, which is densely populated with CB1 but not CB2 receptors; from tissue; host or cells: mouse brain membranes
T1 sequence (P47746 whole entry): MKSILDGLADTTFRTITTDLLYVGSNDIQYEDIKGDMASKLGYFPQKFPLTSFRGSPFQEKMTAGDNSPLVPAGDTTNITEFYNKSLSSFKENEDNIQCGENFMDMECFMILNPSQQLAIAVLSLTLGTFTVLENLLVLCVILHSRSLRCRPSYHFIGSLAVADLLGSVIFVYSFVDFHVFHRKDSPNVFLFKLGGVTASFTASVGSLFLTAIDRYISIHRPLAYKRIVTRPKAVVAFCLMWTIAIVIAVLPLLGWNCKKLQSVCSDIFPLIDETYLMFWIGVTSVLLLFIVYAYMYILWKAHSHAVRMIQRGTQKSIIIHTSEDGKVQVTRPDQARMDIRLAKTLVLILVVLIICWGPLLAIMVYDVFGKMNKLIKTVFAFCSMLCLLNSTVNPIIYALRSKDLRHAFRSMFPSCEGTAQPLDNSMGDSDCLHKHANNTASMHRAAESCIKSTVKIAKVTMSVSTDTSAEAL
Experimental: (§1) Nonspecific binding was measured in the presence of 30 μM GTPγS.
The concentrations of [^35S]GTPγS and GDP present in the assay varied depending on whether the assay was conducted with mouse brain or transfected cell membranes.
Additionally, mouse brain membranes were preincubated for 30 minutes at 30° C. with 0.5 U ml^−1 adenosine deaminase to remove endogenous adenosine.
(§2) The apparent dissociation constant (KB) values for antagonism of agonists by THCV in the vas deferens or [^35S]GTPγS binding assay have been calculated by Schild analysis from the concentration ratio, defined as the concentration of an agonist that elicits a response of a particular size in the presence of a competitive reversible antagonist at a concentration, B, divided by the concentration of the same agonist that produces an identical response in the absence of the antagonist.
(§3) Mean values have been compared using Student's two-tailed t-test for unpaired data or one-way analysis of variance (ANOVA) followed by Dunnett's test (GraphPad Prism). A P-value <0.05 was considered to be significant.

hCB2 receptors = target: T2, hCB2 receptors (Homo sapiens, UniProt P34972); assay: [35S]GTPγS binding assay, CHO-hCB2 cell membranes; assay type: biochemical; details: for KB-value times less than Ki-value: CHO cell membranes, KB ([35S]GTPγS) versus Ki ([3H]CP55940 displacement)
T2 construct: expressed in transfected cells; host or cells: CHO cells
T2 sequence (P34972 whole entry): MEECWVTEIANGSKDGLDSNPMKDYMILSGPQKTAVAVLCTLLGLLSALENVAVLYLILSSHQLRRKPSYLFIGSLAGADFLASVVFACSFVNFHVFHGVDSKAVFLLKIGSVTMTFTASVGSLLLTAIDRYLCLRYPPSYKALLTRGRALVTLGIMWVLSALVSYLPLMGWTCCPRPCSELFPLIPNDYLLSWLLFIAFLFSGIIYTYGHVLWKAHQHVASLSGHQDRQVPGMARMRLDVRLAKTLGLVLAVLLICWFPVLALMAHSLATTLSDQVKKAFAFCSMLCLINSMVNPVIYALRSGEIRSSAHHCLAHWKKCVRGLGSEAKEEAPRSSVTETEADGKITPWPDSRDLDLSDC
Experimental: as §1
The concentrations of [^35S]GTPγS and GDP present in the assay varied depending on whether the assay was conducted with mouse brain or transfected cell membranes. When the assay was conducted with mouse brain membranes, 0.1 nM [^35S]GTPγS and 30 μM GDP were present, whereas the corresponding concentrations present when the assay was conducted with transfected cell membranes were 1 nM and 320 μM respectively.
Additionally, mouse brain membranes were preincubated for 30 minutes at 30° C. with 0.5 U ml^−1 adenosine deaminase to remove endogenous adenosine. Agonists and antagonists were stored as a stock solution of 1 or 10 mM in DMSO, the vehicle concentration in all assay tubes being 0.11% DMSO.
Net agonist-stimulated [^35S]GTPγS binding values were calculated by subtracting basal binding values (obtained in the absence of agonist) from agonist-stimulated values (obtained in the presence of agonist) as detailed elsewhere (Ross et al., 1999a).
as §2, §3

vas deferens = assay: Electrically-evoked twitch response of the vas deferens; details: at concentrations that antagonise cannabinoids
Description: Inhibition of the electrically-evoked twitch response of the vas deferens has been expressed in percentage terms and this has been calculated by comparing the amplitude of the twitch response after each addition of a twitch inhibitor with its amplitude immediately before the first addition of the inhibitor. Contractile responses to phenylephrine and β,γ-methylene-ATP have been expressed as increases in tension (g).
as §2

CB1 receptor [3] = target: T1, CB1 receptor; assay: Radioligand displacement assay, mouse brain membranes; assay type: binding
Experimental: Binding was initiated by the addition of either the brain membranes (33 μg protein per tube) or the transfected hCB2 cells (25 μg protein per tube).
All assays were performed at 37° C. for 60 min before termination by addition of ice-cold wash buffer (50 mM Tris buffer, 1 mg ml^−1 bovine serum albumin, pH 7.4) and vacuum filtration using a 24-well sampling manifold and GF/B filters that had been soaked in wash buffer at 4° C. for at least 24 h.
Each reaction tube was washed six times with a 1.2 ml aliquot of wash buffer. The filters were oven-dried for 60 min and then placed in 5 ml of scintillation fluid. Radioactivity was quantified by liquid scintillation spectrometry.
Specific binding was defined as the difference between the binding that occurred in the presence and absence of 1 μM unlabelled CP55940.
Values are expressed as means and variability as s.e.mean or as 95% confidence limits.

Cc1c(C(=O)NN2CCCCC2)nn(-c2ccc(Cl)cc2Cl)c1-c1ccc(Cl)cc1 [SR141716A]
depression in patients enrolled in the trials [1]: significant increase in depression

CCCc1cc(O)c2c(c1)OC(C)(C)[C@@H]1CCC(C)=C[C@@H]21 [THCV, tetrahydrocannabidivarin]
effect by itself on the ability of [35S]GTPγS to bind (CB1 receptor [2]; mouse brain membranes, at concentrations that antagonise cannabinoids): did not affect | effect by itself on the ability of [35S]GTPγS to bind (hCB2 receptors; CHO-hCB2 cell membranes, at concentrations that antagonise cannabinoids): did not affect | effect by itself on the amplitude of the electrically-evoked contractions (vas deferens): did not affect

CCCCCCC(C)(C)c1ccc([C@@H]2C[C@H](O)CC[C@H]2CCCO)c(O)c1 [[^3H]CP55940]
Kd (CB1 receptor [3]): 2.31 nM

SR144528 [reference compound]
KB-value times less than Ki-value (hCB2 receptors): 15 times

C=C(C)[C@@H]1CCC(C)=C[C@H]1c1c(O)cc(CCCCC)cc1O [CBD, cannabidiol]
inhibitory effect on [35S]GTPγS binding compared with SR141716A (CB1 receptor [2]; 10 μM, both compounds, mouse brain membrane): greatly exceeded that of SR141716A | inhibition of [35S]GTPγS binding to the mouse brain membrane (CB1 receptor [2]; compound alone at 1 and 10 μM): significant inhibition | KB-value times less than Ki-value (hCB2 receptors): 65 times
